In patent publication US12043845B2, “Methods of cell culture” (Polpharma Biologics S.A., priority 2017, dated 2024):

Tests used:
[1] = tested on: CHO cells producing ustekinumab; experiment: Cation exchange chromatography of acidic, main and basic species of ustekinumab from CHO cells cultured with citrulline; type: cell-based, Chinese hamster
Procedure: (§1) The stirred tank reactors (STRs) were inoculated with the cell line C20 or with the cell line C69 in pre-heated production medium (PolCHO-P, available from GE healthcare, Catalogue Number G3258.3050), at a target density of 1.0*10^6 viable cells (vc) mL^−1. From day 3 on, 4.2% (v/v) of feed A (available from GE healthcare, Catalogue Number G3259.3010) per day was added at a continuous rate over 24 hours (equivalent to 2.9 g glucose L^−1 day^−1). If required, a D-glucose solution was used to increase glucose concentration in the broth to 4 g L^−1. In addition, 0.42% (v/v) of feed B (available from GE healthcare, Catalogue Number G3260.0001) was added every day as a bolus. For cell line C20 different concentrations of citrulline (5 g/l, 8 g/l and 12 g/l) were added to the medium and to feed A. For cell line C69 10 g/l citrulline in combination with 40 mM sucrose were added to the medium and to feed A.
Additional samples of approximately 30 mL were collected on days 6, 10 and 14, centrifuged and stored in −80° C. for product quality analysis. […]
(§2) For data evaluation the Waters Empower 3 software was used. The sample composition was determined by detecting peaks based on their retention time and the relative proportions of each peak were calculated from the peak areas. […]

[2] = tested on: CHO cells producing natalizumab; experiment: Cation exchange chromatography of acidic and basic species of natalizumab from CHO cells cultured with citrulline; type: cell-based, Chinese hamster; conditions: increasing concentrations of citrulline (8, 12 g/l), 14 days
Procedure: Cell lineC4 expressing natalizumab was cultured in 15 ml AMBR microbioreactors. Dissolved oxygen tension (DOT) was controlled at 40% and the temperature maintained at 36.8° C. during the first 4 days with a temperature shift to 33° C. on day 5 for the rest of the cultivation time. The targeted viable cell concentration at inoculation was 1.0×10^6±0.1 viable cells mL^−1. The post inoculation volume of the production stage bioreactors was set to 15 mL in the microbioreactors of the AMBR system. The pH set point was 7.0±0.1. The basal medium was PolCHO-P CD (available from GE healthcare). From day 3 on, 4.2% (v/v) of PolCHO feed A (available from GE healthcare) per day was added as a bolus. If required, a D-glucose solution was used to increase glucose concentration in the broth to 4 g L^−1. In addition, 0.42% (v/v) of PolCHO feed B (available from GE healthcare) was added every day as a bolus. […]
The separation was carried out by Cation Exchange High Performance Liquid Chromatography on the UPLC H-Class Bio System using UV detection under Empower™ Software control. […] The column temperature was 40° C. and elution was monitored at 220 nm.
as §2

[3] = tested on: CHO cells producing ustekinumab; experiment: Cell diameter by LUNA cell counter; type: cell-based, Chinese hamster; conditions: citrulline added, vs control without citrulline (FIG. 2)
Procedure: as §1
b) In another set of experiments cell line C20 expressing ustekinumab was selected. This cell line was thawed and cultured in 25 mL shake flasks (SFs) containing PolCHO-P CD (GE Healthcare) medium with methotrexate and geneticin. […] Every day before feeding, glucose concentration was measured. […]
The viable cell concentration, viability and cell size were determined using a LUNA™ cell counter with the following protocol: […]

[4] = tested on: CHO cells producing ustekinumab; experiment: Specific production rate (Qp) for ustekinumab; type: cell-based, Chinese hamster; conditions: citrulline added, vs control without citrulline (FIG. 3)
Procedure: as §1, with “For cell line C20 different concentrations of citrulline (5 g/l, 8 g/l and 12 g/l) were added to the medium and to feed A. For cell line C69 10 g/l citrulline in combination with 40 mM sucrose were added to the medium and to feed A.” left out
b) In another set of experiments cell line C20 expressing ustekinumab was selected. […] Every day before feeding, glucose concentration was measured. […]
(§3) The Octet system performs label-free quantitation of antibodies, proteins, peptides, DNA and other biomolecules and provides kinetic characterization of biomolecular binding interactions. […] The binding rates of the test samples are measured and interpolated from a standard curve generated from a similar or equivalent protein to determine the concentration of the protein. […]

[5] = tested on: CHO cells producing omalizumab; experiment: Specific production rate (Qp) for omalizumab; type: cell-based, Chinese hamster; conditions: citrulline added, vs control without citrulline (FIG. 8)
Procedure: CHO cell line 230×846 expressing the anti-IgE antibody omalizumab was selected for this experiment. The cell line was thawed and cultured in 25 mL shake flasks (SFs) containing PowerCHO-2 CD medium (Lonza) with 4 mM L-glutamine and 1% (v/v) Fe-citrate solution. Subsequently, the cells were expanded in SFs with increasing volume as seed train. 12 SFs were inoculated at a concentration of 0.5·10^6 vc mL^−1. The SFs were inoculated in 25 mL PowerCHO-2-CD medium containing L-glutamine and Fe-citrate and placed on a shaking plateau in an incubator at 37° C. On the day of inoculation, 2% (v/v) of BC feed and 0.2% (v/v) of cys/tyr feed was given. The glucose concentration was measured every day before feeding. From day 3 on, feeding was done based on glucose consumption of the previous day, aiming for a glucose concentration of 3.5 g/L. Different concentrations of citrulline were added to the medium and BC feed.
as §3

[6] = tested on: CHO cells producing ustekinumab; experiment: Rapifluor-MS released N-glycan analysis of ustekinumab; type: cell-based, Chinese hamster; conditions: 5 g/l and 8 g/l citrulline, 12 or 14 days, vs control
Procedure: The shake flasks were inoculated in 25 mL Actipro medium (available from GE healthcare, Catalogue number SH31039.01) and placed on a shaking plateau in an incubator at 37° C. On the day of inoculation, 2% (v/v) of Cell boost 7A (available from GE healthcare, Catalogue number SH31026.02) and 0.2% (v/v) of Cell boost 7B (available from GE healthcare, Catalogue number SH31027.01) was given. From day 3 on, a flat feed was given of 4% (v/v) of Cell boost per day. Every day before feeding, glucose concentration was measured. If required, a D-glucose solution was used to increase glucose concentration in the broth to 4 g L^−1, before feeding. In addition, 0.4% (v/v) of Cell boost 7B was added every day as a bolus. Different concentrations of citrulline (5 g/l and 8 g/l) were added to the medium and to Cell boost 7A. At day 5 after inoculating the cells into the cell culture medium the temperature of the cell culture was reduced to 31° C.±0.2° C.
The N-glycan composition and relative distribution thereof was analyzed using the Rapifluor MS N-Glycan Kit purchased from Waters, using the manufacturer's instructions. It comprises denaturation and release of N-linked glycans by PNGase F from Protein A purified material. The released glycans are then labeled with the proprietary Rapifluor label, which contains a fluorescent moiety and a proton capturing moiety. […]

CHO cells = experiment: Citrulline concentration in culture medium during fermentation (UPLC-MS); type: in vitro ADME, Chinese hamster; conditions: cell line C69, stirred tank reactor, 10 g/l citrulline, days 8, 11, 13, 14
Procedure: Additional samples of approximately 30 mL were collected on days 6, 10 and 14, centrifuged and stored in −80° C. for product quality analysis. For the experiments with cell line C69 samples were also taken to determine the concentration of citrulline at different time points (days 8, 11, 13 and 14) during the bioreactor run.
To determine if citulline can be metabolised by CHO cells clarified samples were taken from the stirred tank reactor run with clone C69. Quantification of the concentration of citrulline during the culture was standardized using a 10 g/l citulline solution in WFI and the PolCHO medium was used as a negative control.
About 1 mL of culture medium was centrifuged in an Eppendorf centrifuge at 15000 rpm and at 4° C. for 10 minutes. […]
Using reference sample, the molecular mass of citrulline was confirmed by UPLC-MS to be 175.08 Da. The concentration of citrulline in the reference sample was 55.84 mM as determined by qNMR. The citrulline concentrations in culture medium samples of days 8, 11, 13 and 14 were determined by UPLC-MS analysis after appropriate dilution of the samples and by using external calibration lines prepared using the reference sample. No citrulline was detected in POLCHO medium (see FIG. 11).

## NC(=O)NCCC[C@H](N)C(=O)O [citrulline]
[1]; 12 g L^-1 citrulline, day 14, control 11%
  basic peaks of ustekinumab: 22%
[1]; increasing concentrations of citrulline (5, 8, 12 g/l), day 14, vs control
  acidic 2 peaks of ustekinumab: decreased dose-dependently
[2]
  sum of acidic peaks of natalizumab: decreased dose-dependently
  sum of basic peaks of natalizumab: increased dose-dependently
[3]
  diameter of the cells: increases
[4]
  specific production rate Qp for ustekinumab: increases
[5]
  specific production rate Qp for omalizumab: same increase
[6]
  G0F, G1F, G1'F, G2F and sum of sialylated species: no differences
CHO cells
  concentration of citrulline during the fermentation: does not change significantly
